What was measured:
Streptococcus pneumoniae = assay: Field-effect transistor biological sensing device, detecting of Streptococcus pneumoniae; assay type: binding, Streptococcus pneumoniae ATCC 49136; details: amino acid sequence modified onto field-effect transistor; broths of Streptococcus pneumoniae with different concentrations; FIG. 3
Description: UlaG protein is expressed in the cell wall of Streptococcus pneumoniae. The following experimental example used the biological sensing device of the present invention to detect whether the sample included Streptococcus pneumoniae, and the detecting method included the following steps: • 1. The amino acid sequence including the sequence shown in SEQ ID NO: 1 was largely expressed by Escherichia coli. • 2. The amino acid sequence in step 1 was purified, and then modified onto a surface of a field-effect transistor. • 3. The field-effect transistor modified with the amino acid sequence in step 2 was contact to broths of Streptococcus pneumoniae with different concentrations, and the potential difference of the surface of the field-effect transistor modified was measured. The strain of Streptococcus pneumoniae used in this experimental example was ATCC 49136.
FIG. 2 is a schematic view of a biological sensing device 300 according to an embodiment of the present invention detecting a biomolecule 400. […]
FIG. 3 is a potential difference-bacterial concentration diagram of an embodiment of the present invention for the detecting experiment, which the bacterial concentration is represented by the number of colonies per milliliter (mL) of the broth. […] The Streptococcus pneumoniae can be detected by the change in the surface potential.

UlaG protein = assay: Phage display peptide screening against UlaG protein on ELISA plate; assay type: binding; details: UlaG protein expressed by Escherichia coli, purified, modified onto ELISA plate
Description: The screening method of an amino acid according to an embodiment of the present invention included the following steps: • 1. UlaG protein was largely expressed by Escherichia coli • 2. The UlaG protein in step 1 was purified, and then modified onto an enzyme-linked immunosorbent assay (ELISA) plate. • 3. Phage display peptide system was used to perform the screening. The phage display peptide system used bacteriophages with various peptide segments to contact the UlaG protein. After a process of repeated binding, washing, eluting, amplifying, and re-binding, the bacteriophage that can bind to the UlaG protein was selected. • 4. The selected bacteriophage in step 3 was amplified and sequenced by polymerase chain reaction (PCR). The amino acid sequence that can bind to the UlaG protein was then obtained.
Therefore, an amino acid sequence including the sequence shown in SEQ ID NO: 1 or SEQ ID NO: 2 can be used in the recognition of the UlaG protein.

Streptococcus mutans = assay: Field-effect transistor biological sensing device, comparative example Streptococcus mutans; assay type: binding; details: FIG. 4
Protocol: Furthermore, the present experimental example applied Streptococcus mutans as a comparative example using the abovementioned biological sensing device 300 and detecting method. The field-effect transistor modified with the amino acid sequence including the sequence shown in SEC) ID NO: 1 was contact to broths of Streptococcus mutans with different concentrations, and the potential difference of the surface of the field-effect transistor modified was measured.
FIG. 4 is a potential difference-bacterial concentration diagram of a comparative example for a detecting experiment, which the bacterial concentration is represented by the number of colonies per mL of the broth. […] Therefore, Streptococcus […] is not recognized by and bound to the amino acid sequence of the biological sensing device of the present invention.

| Substance | potential difference of the surface of the field-effect transistor vs bacterial concentration (Streptococcus pneumoniae) | binding affinity to the UlaG protein (UlaG protein) | potential difference of the surface of the field-effect transistor vs bacterial concentration (Streptococcus mutans; amino acid sequence modified onto field-effect transistor, broths of Streptococcus mutans with different concentrations) | reaction of the amino acid sequence with Streptococcus mutans (Streptococcus mutans; field-effect transistor device) |
| --- | --- | --- | --- | --- |
| SEQ ID NO: 1: short sequence of 7 amino acids, selected by phage display, that binds the UlaG protein; used on the field-effect transistor (ENIMPVL; amino acid sequence bound to UlaG protein) | increased with the increase of the bacterial concentration | high binding affinities | did not change accordingly with the increase of the bacterial concentration | does not react |
| SEQ ID NO: 2: short sequence of 7 amino acids, selected by phage display, that binds the UlaG protein (ERIMPVL; amino acid sequence bound to UlaG protein) | – | high binding affinities | – | – |
